Data: patent US4189484A, “Antihypertensive quinazoline derivatives” (priority 1977, dated 1980)

Test system: spontaneously hypertensive rats (SHR)
Experiment: Antihypertensive effect, oral administration to spontaneously hypertensive rats (mean blood pressure and heart rate)
Type: in vivo, rat
Details: SHR, p.o.; for Changes in average blood pressures after administration: Table 3; for Change in blood pressure after 3 hrs. from administration: Table 1, 10 mg./kg.
Description: Antihypertensive effect was determined by oral administration of the test compound to spontaneously hypertensive rats (hereinafter referred to as SHR).
These SHR were anesthetized with ether and chronically embedded with a cannula for determination of blood pressure so that one end of the said cannula may be placed in abdominal aorta and the other end thereof may be projected out of dorsal neck. When rats regained their body weight before operation in more than 1 week from operation, the test compound was given. Determination was made by measuring a mean blood pressure and a heart rate under unanesthetized and unrestrained conditions with the cannula connected to an electronic recording system. The test compound was suspended in a 1% tragacanth gum solution to make up a concentration so as to be a volume of 5 ml./kg. and then orally given.

2-{4-[3-(5-Chlorothiophen-2-yl)-acryloyl]-piperazin-1-yl}-4-amino-6,7-dimethoxyquinazoline [compound 42]
Changes in average blood pressures after administration (3 mg./kg., 1 hr.): -6 mmHg | Changes in average blood pressures after administration (3 mg./kg., 3 hrs.): -6 mmHg | Changes in average blood pressures after administration (3 mg./kg., 6 hrs.): -7 mmHg | Changes in average blood pressures after administration (3 mg./kg., 24 hrs.): -2 mmHg

COc1cc2nc(N3CCN(C(=O)C=Cc4ccccc4C)CC3)nc(N)c2cc1OC [compound 2, 2-[4-(2-Methylcinnamoyl)-piperazin-1-yl]-4-amino-6,7-dimethoxyquinazoline]
Change in blood pressure after 3 hrs. from administration (3 hrs.): -43 mmHg

COc1cc2nc(N3CCN(C(=O)C=Cc4cccc(C)c4)CC3)nc(N)c2cc1OC [compound 3, 2-[4-(3-Methylcinnamoyl)-piperazin-1-yl]-4-amino-6,7-dimethoxyquinazoline]
Change in blood pressure after 3 hrs. from administration (3 hrs.): -35 mmHg

COc1cc2nc(N3CCN(C(=O)C=Cc4ccc(C)cc4)CC3)nc(N)c2cc1OC [compound 4, 2-[4-(4-Methylcinnamoyl)-piperazin-1-yl]-4-amino-6,7-dimethoxyquinazoline]
Change in blood pressure after 3 hrs. from administration (3 hrs.): -18 mmHg

COc1cccc(C=CC(=O)N2CCN(c3nc(N)c4cc(OC)c(OC)cc4n3)CC2)c1 [compound 7, 2-[4-(3-Methoxycinnamoyl)-piperazin-1-yl]-4-amino-6,7-dimethoxyquinazoline]
Change in blood pressure after 3 hrs. from administration (3 hrs.): -18 mmHg

COc1cc(C=CC(=O)N2CCN(c3nc(N)c4cc(OC)c(OC)cc4n3)CC2)cc(OC)c1 [compound 13, 2-[4-(3,5-Dimethoxycinnamoyl)-piperazin-1-yl]-4-amino-6,7-dimethoxyquinazoline]
Change in blood pressure after 3 hrs. from administration (3 hrs.): -12 mmHg

COc1cc2nc(N3CCN(C(=O)C=Cc4ccc(OC)c(OC)c4OC)CC3)nc(N)c2cc1OC [compound 14, 2-[4-(2,3,4-Trimethoxycinnamoyl)-piperazin-1-yl]-4-amino-6,7-dimethoxyquinazoline]
Change in blood pressure after 3 hrs. from administration (3 hrs.): -22 mmHg

C=CCOc1ccc(C=CC(=O)N2CCN(c3nc(N)c4cc(OC)c(OC)cc4n3)CC2)cc1 [compound 17, 2-[4-(4-Allyloxycinnamoyl)-piperazin-1-yl]-4-amino-6,7-dimethoxyquinazoline]
Change in blood pressure after 3 hrs. from administration (3 hrs.): -18 mmHg

COc1cc2nc(N3CCN(C(=O)C=Cc4ccc(Br)cc4)CC3)nc(N)c2cc1OC [compound 21, 2-[4-(4-Bromocinnamoyl)-piperazin-1-yl]-4-amino-6,7-dimethoxyquinazoline]
Change in blood pressure after 3 hrs. from administration (3 hrs.): -22 mmHg

COc1cc2nc(N3CCN(C(=O)C=Cc4cccc(C(F)(F)F)c4)CC3)nc(N)c2cc1OC [compound 22, 2-[4-(3-Trifluoromethylcinnamoyl)-piperazin-1-yl]-4-amino-6,7-dimethoxyquinazoline]
Change in blood pressure after 3 hrs. from administration (3 hrs.): -10 mmHg

COc1cc2nc(N3CCN(C(=O)C=Cc4ccc(N(C)C)cc4)CC3)nc(N)c2cc1OC [compound 23, 2-[4-(4-Dimethylaminocinnamoyl)-piperazin-1-yl]-4-amino-6,7-dimethoxyquinazoline]
Change in blood pressure after 3 hrs. from administration (3 hrs.): -15 mmHg

COc1cc2nc(N3CCN(C(=O)C=Cc4ccoc4)CC3)nc(N)c2cc1OC [compound 29, 2-{4-[3-(Furan-3-yl)-acryloyl]-piperazin-1-yl]-4-amino-6,7-dimethoxyquinazoline]
Changes in average blood pressures after administration (1 mg./kg., 1 hr.): -25 mmHg | Changes in average blood pressures after administration (1 mg./kg., 3 hrs.): -28 mmHg | Changes in average blood pressures after administration (1 mg./kg., 6 hrs.): -37 mmHg | Changes in average blood pressures after administration (1 mg./kg., 24 hrs.): -17 mmHg

COc1cc2nc(N3CCN(C(=O)C=Cc4ccc(C)o4)CC3)nc(N)c2cc1OC [compound 30, 2-{4-[3-(5-Methylfuran-2-yl)-acryloyl]-piperazin-1-yl}-4-amino-6,7-dimethoxyquinazoline]
Changes in average blood pressures after administration (1 mg./kg., 1 hr.): -13 mmHg | Changes in average blood pressures after administration (1 mg./kg., 3 hrs.): -12 mmHg | Changes in average blood pressures after administration (1 mg./kg., 6 hrs.): -15 mmHg | Changes in average blood pressures after administration (1 mg./kg., 24 hrs.): 0 mmHg
